According to the NIST ThermoML archive (doi:10.1016/j.jct.2016.08.006):

Test: molar heat capacity at constant pressure; xn = mol fraction of the nth substance listed
Settings: 101.3 kPa, Liquid, Small sample (50 mg) DSC

NCCN1CCNCC1 [N-(β-aminoethyl)piperazine)] + O
molar heat capacity at constant pressure [J/K/mol]
Settings	x1 = 0.1	x1 = 0.3	x1 = 0.5	x1 = 0.7	x1 = 0.9	x1 = 1
303.2 K	109.7	157.3	202.1	242.8	278.3	289.7
308.2 K	110.2	158.5	203.2	244.3	279.8	290.8
313.2 K	110.7	160.3	204.8	246.3	281.6	293.1
318.2 K	111	162.1	206.3	248.1	283.1	294.7
323.2 K	111.4	164.3	208.5	250.6	285.2	296.9
328.2 K	111.4	165.7	210	252.5	287	298.5
333.2 K	111.6	167.3	211.8	253.5	289	300.7
338.2 K	111.8	168.7	213.6	254.5	290.9	302.2
343.2 K	112.4	170.1	215.2	255.9	292	303.3
348.2 K	112.6	171.4	216.3	256.2	292.5	303.6
353.2 K	112.9	173.1	217.6	257.3	293.7	304.6

CNCCN(C)C [N,N,N'-trimethylethylenediamine] + O
molar heat capacity at constant pressure [J/K/mol]
Settings	x1 = 0.1	x1 = 0.3	x1 = 0.5	x1 = 0.7	x1 = 0.9	x1 = 1
303.2 K	105.2	151	188.5	217.4	245.2	258.3
308.2 K	105.5	152.4	190.1	219.1	246.8	260
313.2 K	106.1	154	192.1	221.2	249.3	262.7
318.2 K	106.5	155.6	193.9	223.1	251.7	265.3
323.2 K	107.3	157.8	196.1	226	255.5	269.2
328.2 K	107.6	159.5	198.2	228.5	258.7	272.7
333.2 K	108.1	161.4	200.2	231	261.8	276
338.2 K	108.5	162.7	201.9	233.3	264.4	278.9
343.2 K	109	163.8	203.3	235.3	267.3	281.3
348.2 K	109.4	164.8	204.4	237.5	270.2	283.4
353.2 K	110.3	166.2	206.3	239.8	273.1	286.6
